# Assay results as given in PubChem BioAssay (NCI).
#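 Interpolation was linear, between the two tested concentrations surrounding the appropriate level; five concentrations were tested over 48 hours in 96-well plates. GI50 = concentration required for 50% inhibition of growth. TGI: concentration producing complete growth inhibition.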
# Key:
# Assay in all cases: inhibition of tumour cell growth, NCI panel, 48 h
# MDA-MB-231 breast = tested on: MDA-MB-231 breast
# K-562 leukemia = tested on: K-562 leukemia
# LOX IMVI melanoma = tested on: LOX IMVI melanoma
# NCI-H460 lung = tested on: NCI-H460 lung
# HT29 colon = tested on: HT29 colon
# MCF7 breast = tested on: MCF7 breast
# MOLT-4 leukemia = tested on: MOLT-4 leukemia
# KM12 colon = tested on: KM12 colon
# COLO 205 colon = tested on: COLO 205 colon
# NCI-H226 lung = tested on: NCI-H226 lung
# HL-60(TB) leukemia = tested on: HL-60(TB) leukemia
# OVCAR-3 ovarian = tested on: OVCAR-3 ovarian
# SW-620 colon = tested on: SW-620 colon
# EKVX NSCLC = tested on: EKVX NSCLC
# SK-MEL-5 melanoma = tested on: SK-MEL-5 melanoma
# HOP-62 NSCLC = tested on: HOP-62 NSCLC
# U251 CNS = tested on: U251 CNS
# CAKI-1 renal = tested on: CAKI-1 renal
# HCT-116 colon = tested on: HCT-116 colon
# 786-0 renal = tested on: 786-0 renal
# RPMI-8226 leukemia = tested on: RPMI-8226 leukemia
# SNB-19 CNS = tested on: SNB-19 CNS
# NCI-H23 lung = tested on: NCI-H23 lung
# TK-10 renal = tested on: TK-10 renal
# SF-268 CNS = tested on: SF-268 CNS
# T-47D breast = tested on: T-47D breast
# HCT-15 colon = tested on: HCT-15 colon
# UO-31 renal = tested on: UO-31 renal
# MDA-MB-435 = tested on: MDA-MB-435
# A549 NSCLC = tested on: A549 NSCLC
# M14 melanoma = tested on: M14 melanoma
# HOP-92 NSCLC = tested on: HOP-92 NSCLC
# SN12C renal = tested on: SN12C renal
# UACC-62 melanoma = tested on: UACC-62 melanoma
# OVCAR-8 ovarian = tested on: OVCAR-8 ovarian
# RXF 393 renal = tested on: RXF 393 renal
# BT-549 breast = tested on: BT-549 breast
# ACHN renal = tested on: ACHN renal
# IGROV1 ovarian = tested on: IGROV1 ovarian
# SK-MEL-28 melanoma = tested on: SK-MEL-28 melanoma
# UACC-257 melanoma = tested on: UACC-257 melanoma
# SF-295 CNS = tested on: SF-295 CNS
# PC-3 prostate = tested on: PC-3 prostate
# SK-MEL-2 melanoma = tested on: SK-MEL-2 melanoma
# NCI-H522 lung = tested on: NCI-H522 lung
# HS 578T breast = tested on: HS 578T breast
# OVCAR-5 ovarian = tested on: OVCAR-5 ovarian
# CCRF-CEM leukemia = tested on: CCRF-CEM leukemia
smiles,measurement,setting,value
Cc1ccc(-c2cc(C3=CC(=O)C=CC3=O)n(-c3ccc(S(N)(=O)=O)cc3)n2)cc1,GI50,MDA-MB-231 breast,20.6 µM
same,TGI,MDA-MB-231 breast,72.8 µM
same,GI50,K-562 leukemia,34.4 µM
same,TGI,K-562 leukemia,> 100 µM
same,GI50,LOX IMVI melanoma,31.2 µM
same,TGI,LOX IMVI melanoma,> 100 µM
same,GI50,NCI-H460 lung,68.2 µM
same,TGI,NCI-H460 lung,> 100 µM
same,GI50,HT29 colon,56.4 µM
same,TGI,HT29 colon,> 100 µM
same,GI50,MCF7 breast,53.1 µM
same,TGI,MCF7 breast,> 100 µM
same,GI50,MOLT-4 leukemia,9.06 µM
same,TGI,MOLT-4 leukemia,> 100 µM
same,GI50,KM12 colon,24 µM
same,TGI,KM12 colon,> 100 µM
same,GI50,COLO 205 colon,53.9 µM
same,TGI,COLO 205 colon,> 100 µM
same,GI50,NCI-H226 lung,54 µM
same,TGI,NCI-H226 lung,> 100 µM
same,GI50,HL-60(TB) leukemia,37.3 µM
same,TGI,HL-60(TB) leukemia,> 100 µM
same,GI50,OVCAR-3 ovarian,44.5 µM
same,TGI,OVCAR-3 ovarian,> 100 µM
same,GI50,SW-620 colon,44.5 µM
same,TGI,SW-620 colon,> 100 µM
same,GI50,EKVX NSCLC,47.8 µM
same,TGI,EKVX NSCLC,> 100 µM
same,GI50,SK-MEL-5 melanoma,83.1 µM
same,TGI,SK-MEL-5 melanoma,> 100 µM
same,GI50,HOP-62 NSCLC,69.7 µM
same,TGI,HOP-62 NSCLC,> 100 µM
same,GI50,U251 CNS,42.4 µM
same,TGI,U251 CNS,> 100 µM
same,GI50,CAKI-1 renal,52.3 µM
same,TGI,CAKI-1 renal,> 100 µM
same,GI50,HCT-116 colon,17.3 µM
same,TGI,HCT-116 colon,33 µM
same,GI50,786-0 renal,26.6 µM
same,TGI,786-0 renal,58.8 µM
same,GI50,RPMI-8226 leukemia,6.17 µM
same,TGI,RPMI-8226 leukemia,70.2 µM
same,GI50,SNB-19 CNS,63.7 µM
same,TGI,SNB-19 CNS,> 100 µM
same,GI50,NCI-H23 lung,32.9 µM
same,TGI,NCI-H23 lung,> 100 µM
same,GI50,TK-10 renal,8.54 µM
same,TGI,TK-10 renal,48.7 µM
same,GI50,SF-268 CNS,55.3 µM
same,TGI,SF-268 CNS,> 100 µM
same,GI50,T-47D breast,46.8 µM
same,TGI,T-47D breast,> 100 µM
same,GI50,HCT-15 colon,58.2 µM
same,TGI,HCT-15 colon,> 100 µM
same,GI50,UO-31 renal,> 100 µM
same,TGI,UO-31 renal,> 100 µM
same,GI50,MDA-MB-435,59.4 µM
same,TGI,MDA-MB-435,> 100 µM
same,GI50,A549 NSCLC,> 100 µM
same,TGI,A549 NSCLC,> 100 µM
same,GI50,M14 melanoma,31.8 µM
same,TGI,M14 melanoma,80.9 µM
same,GI50,HOP-92 NSCLC,35.6 µM
same,TGI,HOP-92 NSCLC,> 100 µM
same,GI50,SN12C renal,58.7 µM
same,TGI,SN12C renal,> 100 µM
same,GI50,UACC-62 melanoma,39.5 µM
same,TGI,UACC-62 melanoma,> 100 µM
same,GI50,OVCAR-8 ovarian,88.7 µM
same,TGI,OVCAR-8 ovarian,> 100 µM
same,GI50,RXF 393 renal,> 100 µM
same,TGI,RXF 393 renal,> 100 µM
same,GI50,BT-549 breast,64.1 µM
same,TGI,BT-549 breast,> 100 µM
same,GI50,ACHN renal,42.9 µM
same,TGI,ACHN renal,> 100 µM
same,GI50,IGROV1 ovarian,> 100 µM
same,TGI,IGROV1 ovarian,> 100 µM
same,GI50,SK-MEL-28 melanoma,> 100 µM
same,TGI,SK-MEL-28 melanoma,> 100 µM
same,GI50,UACC-257 melanoma,> 100 µM
same,TGI,UACC-257 melanoma,> 100 µM
same,GI50,SF-295 CNS,> 100 µM
same,TGI,SF-295 CNS,> 100 µM
same,GI50,PC-3 prostate,36.5 µM
same,TGI,PC-3 prostate,> 100 µM
same,GI50,SK-MEL-2 melanoma,> 100 µM
same,TGI,SK-MEL-2 melanoma,> 100 µM
same,GI50,NCI-H522 lung,59.9 µM
same,TGI,NCI-H522 lung,> 100 µM
same,GI50,HS 578T breast,64.8 µM
same,TGI,HS 578T breast,> 100 µM
same,GI50,OVCAR-5 ovarian,35.9 µM
same,TGI,OVCAR-5 ovarian,> 100 µM
same,GI50,CCRF-CEM leukemia,> 100 µM
same,TGI,CCRF-CEM leukemia,> 100 µM
